Laboratory results from PMC4632086, “Effects and possible mechanisms of action of acacetin on the behavior and eye morphology of Drosophila models of Alzheimer’s disease” (Scientific Reports, 2015).

How the values were obtained:
Format in all cases: in vivo, Drosophila melanogaster
elav < APP/BACE-1 flies [1] = assay: Fly eclosion rate (pupation and emergence); settings: 100, 300, and 500 μM
Protocol: The pupation and emergence rates were determined according to the method of Tamura et al.[78]. The elav < APP/BACE-1 flies were cultured from the egg stage in vials, as stated previously. Groups of 50 third instar larvae climbing on the wall were transferred into vials containing fresh media. The treated and control (0.1% DMSO only) flies were grown under the same conditions as those used for fly maintenance. The numbers of pupae and adults were determined. All treatments were repeated four times using 50 larvae per replicate.

elav < APP/BACE-1 flies [2] = assay: Climbing assay (negative geotaxis); settings: 100, 300, and 500 μM, males
Protocol: The climbing activity assay was performed, as described by Wang et al.[33] and Crowther et al.[34]. Groups of 20 male elav < APP/BACE-1 flies (1, 5, 10, and 15 days old), cultured in vials as stated previously, were separately placed in an empty vial conjoined with another vial on top, and manually tapped twice. After 20 s, the flies that climbed from the bottom and crossed the 9.5 cm line were counted, and the climbing index was determined as the number of flies that climbed to the top vial relative to the total number of test flies and expressed as a percentage. The controls received 0.1% DMSO. All trials were repeated five times using 20 males per replicate.

human BACE-1 mRNA = assay: Real-time qRT-PCR, human BACE-1 mRNA in elav < APP/BACE-1 flies; settings: 100, 300, and 500 μM; 20-day-old males
Protocol: Real-time qRT-PCR with SYBR Green dye was performed to determine whether acacetin affected the expression levels of the human APP and BACE-1 mRNAs in the transgenic flies. The elav < APP/BACE-1 and elav < GFP flies were cultured from the egg stage in vials, as stated previously. The controls received 0.1% DMSO only. The total RNA was extracted from 30 heads (30 mg) of male elav < APP/BACE-1 and elav < GFP flies (20 days old) using the RNeasy Mini Kit (Qiagen, Hilden, Germany) according to the manufacturer’s instructions. The residual genomic DNA was removed using RQ1 RNase-Free DNase (Promega, Fitchburg, WI, USA), and 1 μg of the total RNA from each sample was used for complementary DNA (cDNA) synthesis with an oligo (dT) 12–18 primer (Invitrogen, Carlsbad, CA, USA) according to the protocol of the SuperScript III Reverse Transcriptase Kit. Real-time qRT-PCR was performed in 96-well plates using the StepOne Plus Real-Time PCR System (Applied Biosystems, Darmstadt, Germany). […] The mRNA expression levels of the target genes were normalized to the mRNA expression level of the housekeeping gene rp 49 that encodes the Drosophila ribosomal protein 49, and analyzed by the 2^–ΔΔCT method using the StepOne Software v2.3 and DataAssist Software (Applied Biosystems). The results are expressed as the means ± SEs of duplicate samples from three independent experiments.

Aβ = assay: Western blot, Aβ in heads of elav < APP/BACE-1 flies; settings: 20-day-old males
Protocol: (§1) The elav < APP/BACE-1 flies were cultured from the egg stage, as described previously. The lysates were obtained from the heads of 50 male flies (20 days old) by placing the heads in 100 μL RIPA buffer (pH 8.0) containing a 1% protease inhibitor cocktail. The controls received 0.1% DMSO. The lysates were centrifuged at 14,000 rpm for 30 min at 4 °C. The protein content of the supernatant was determined using a Bradford Protein Assay kit (Sigma-Aldrich) and BSA was used as the standard. The total proteins (30 μg/sample for APP and BACE-1 detection; 70 μg/sample for Aβ detection) were mixed with an equal volume of 5× sample buffer[81] containing 40 mM of DL-dithiothreitol, boiled for 10 min, and then loaded onto 8, 10, and 12% sodium dodecyl sulfate-polyacrylamide gels using a Mini-Protean 3 electrophoresis cell (Bio-Rad, Hercules, CA, USA) for APP, APP-CTF (APP-αCTF and APP-βCTF) and AICD, BACE-1, and Aβ detection, respectively. After electrophoresis at 110 V in 2 h, the proteins from the gels were transferred onto a polyvinyl difluoride membrane (Pall Corporation, Pensacola, FL, USA) using an electroblotting apparatus. The membrane was then blocked with 5% skim milk (BD Difco, Flanklin Lakes, NJ, USA) in PBS containing 0.1% (v/v) Tween-20 (0.1% PBS-T) at room temperature for 1 h, and further incubated overnight at 4 °C with a 1:4,000 dilution of an anti-APP C-terminal antibody to detect the cleaved APP product, a 1:1,000 dilution of anti-BACE-1, and a 1:1,000 dilution of anti-amyloid (4G8). After washing with 0.1% PBS-T three times at 10 min intervals, the membranes were further incubated for 2 h with a goat anti-rabbit IgG H&L (HRP) secondary antibody at a1:4,000 dilution for APP and BACE-1 and a goat anti-mouse lgG-HRP at a 1:5,000 dilution for β-amyloid. […] The differences in protein expression were quantified using a Molecular Imager Gel Doc XR system (Bio-Rad, Hercules, CA, USA) and normalized to actin expression on the same membrane. The results are expressed as the means ± SEs of duplicate samples from three independent experiments.

human APP = assay: Western blot, APP protein in heads of elav < APP/BACE-1 flies; settings: 20-day-old males
Protocol: as §1

COc1ccc(-c2cc(=O)c3c(O)cc(O)cc3o2)cc1 [acacetin]
pupation rate (elav < APP/BACE-1 flies [1]): nearly normal pupation rates | emergence of flies (elav < APP/BACE-1 flies [1]; vehicle 76%, elav-Gal4/+ 99%, not significant vs vehicle): 82–86% | climbing index (elav < APP/BACE-1 flies [2]; 1 day postemergence, vehicle 47%): approximately 68% | climbing index (elav < APP/BACE-1 flies [2]; 5 days postemergence, vehicle 39%): 60–66% | climbing index (elav < APP/BACE-1 flies [2]; 10 days postemergence, vehicle 36%): 53–54% | climbing index (elav < APP/BACE-1 flies [2]; 15 days postemergence, vehicle 11%): 27–30% | human BACE-1 mRNA levels, % of the control levels (human BACE-1 mRNA): 82–89% | Aβ levels, % of the controls (Aβ; 100 μM): 71% | Aβ levels, % of the controls (Aβ; 300 μM): 72% | Aβ levels, % of the controls (Aβ; 500 μM): 47% | APP levels, % of the control levels (human APP; 100 μM, not significantly different from control): 86% | APP levels, % of the control levels (human APP; 300 μM): 70% | APP levels, % of the control levels (human APP; 500 μM): 69%
